{"source": "the supplement of paper PMC10307832", "test_in_all_cases": "relative viability (nuclei count vs DMSO), 5 days (fraction); higher = more cells survive", "key": {"NCI-H2023": {"test_system": "NCI-H2023", "how_it_was_run": "(§1)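 Lung cancer cell lines were seeded in 1536-well plates and dosed by pin tool the next day, with either a single drug or a fixed anchor-drug dose combined with five library-drug doses (not always all listed) spaced in √10 steps. Five days later, one step fixed the cells and stained their nuclei (final 0.05% Triton X-100, 1% formaldehyde, 1 ug/ml Hoechst), and nuclei were counted on 4× images. Relative viability is the nuclei count in treated wells divided by the count in vehicle wells, and each value is the median of duplicate plates.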"}, "NCI-H2085": {"test_system": "NCI-H2085", "how_it_was_run": "as §1"}, "NCI-H2126": {"test_system": "NCI-H2126", "how_it_was_run": "as §1"}, "NCI-H2347": {"test_system": "NCI-H2347", "how_it_was_run": "as §1"}, "NCI-H322M": {"test_system": "NCI-H322M", "how_it_was_run": "as §1"}, "NCI-H647": {"test_system": "NCI-H647", "how_it_was_run": "as §1"}, "NCI-H661": {"test_system": "NCI-H661", "how_it_was_run": "as §1"}, "NCI-H727": {"test_system": "NCI-H727", "how_it_was_run": "as §1"}, "PC-14": {"test_system": "PC-14", "how_it_was_run": "as §1"}, "SK-LU-1": {"test_system": "SK-LU-1", "how_it_was_run": "as §1"}, "SW 1573": {"test_system": "SW 1573", "how_it_was_run": "as §1"}}}
{"compound": "O=c1cc(N2CCOCC2)oc2c(-c3cccc4c3sc3ccccc34)cccc12", "note": "+ Cc1nc(NC(=O)N2CCC[C@H]2C(N)=O)sc1-c1ccnc(C(C)(C)C(F)(F)F)c1 [Alpelisib] (partner 2 µM)", "values": [{"measurement": "relative viability", "setting": "NCI-H2023; first compound 0.01 µM", "value": 0.653}, {"measurement": "relative viability", "setting": "NCI-H2023; first compound 0.03162 µM", "value": 0.621}, {"measurement": "relative viability", "setting": "NCI-H2023; first compound 0.1 µM", "value": 0.618}, {"measurement": "relative viability", "setting": "NCI-H2023; first compound 0.3162 µM", "value": 0.532}, {"measurement": "relative viability", "setting": "NCI-H2023; first compound 1 µM", "value": 0.487}, {"measurement": "relative viability", "setting": "NCI-H2085; first compound 0.01 µM", "value": 0.941}, {"measurement": "relative viability", "setting": "NCI-H2085; first compound 0.03162 µM", "value": 0.902}, {"measurement": "relative viability", "setting": "NCI-H2085; first compound 0.1 µM", "value": 1.02}, {"measurement": "relative viability", "setting": "NCI-H2085; first compound 0.3162 µM", "value": 0.919}, {"measurement": "relative viability", "setting": "NCI-H2085; first compound 1 µM", "value": 0.983}, {"measurement": "relative viability", "setting": "NCI-H2126; first compound 0.01 µM", "value": 0.721}, {"measurement": "relative viability", "setting": "NCI-H2126; first compound 0.03162 µM", "value": 0.736}, {"measurement": "relative viability", "setting": "NCI-H2126; first compound 0.1 µM", "value": 0.762}, {"measurement": "relative viability", "setting": "NCI-H2126; first compound 0.3162 µM", "value": 0.733}, {"measurement": "relative viability", "setting": "NCI-H2126; first compound 1 µM", "value": 0.729}, {"measurement": "relative viability", "setting": "NCI-H2347; first compound 0.01 µM", "value": 1.17}, {"measurement": "relative viability", "setting": "NCI-H2347; first compound 0.03162 µM", "value": 1.04}, {"measurement": "relative viability", "setting": "NCI-H2347; first compound 0.1 µM", "value": 1.04}, {"measurement": "relative viability", "setting": "NCI-H2347; first compound 0.3162 µM", "value": 1}, {"measurement": "relative viability", "setting": "NCI-H2347; first compound 1 µM", "value": 1.02}, {"measurement": "relative viability", "setting": "NCI-H322M; first compound 0.01 µM", "value": 0.804}, {"measurement": "relative viability", "setting": "NCI-H322M; first compound 0.03162 µM", "value": 0.721}, {"measurement": "relative viability", "setting": "NCI-H322M; first compound 0.3162 µM", "value": 0.82}, {"measurement": "relative viability", "setting": "NCI-H322M; first compound 1 µM", "value": 0.813}, {"measurement": "relative viability", "setting": "NCI-H647; first compound 0.01 µM", "value": 1.18}, {"measurement": "relative viability", "setting": "NCI-H647; first compound 0.03162 µM", "value": 1.2}, {"measurement": "relative viability", "setting": "NCI-H647; first compound 0.1 µM", "value": 1.24}, {"measurement": "relative viability", "setting": "NCI-H647; first compound 0.3162 µM", "value": 1.11}, {"measurement": "relative viability", "setting": "NCI-H647; first compound 1 µM", "value": 0.913}, {"measurement": "relative viability", "setting": "NCI-H661; first compound 0.01 µM", "value": 0.556}, {"measurement": "relative viability", "setting": "NCI-H661; first compound 0.03162 µM", "value": 0.243}, {"measurement": "relative viability", "setting": "NCI-H661; first compound 0.1 µM", "value": 0.591}, {"measurement": "relative viability", "setting": "NCI-H661; first compound 0.3162 µM", "value": 0.606}, {"measurement": "relative viability", "setting": "NCI-H661; first compound 1 µM", "value": 0.506}, {"measurement": "relative viability", "setting": "NCI-H727; first compound 0.01 µM", "value": 0.481}, {"measurement": "relative viability", "setting": "NCI-H727; first compound 0.03162 µM", "value": 0.591}, {"measurement": "relative viability", "setting": "NCI-H727; first compound 0.1 µM", "value": 0.493}, {"measurement": "relative viability", "setting": "NCI-H727; first compound 0.3162 µM", "value": 0.538}, {"measurement": "relative viability", "setting": "NCI-H727; first compound 1 µM", "value": 0.541}, {"measurement": "relative viability", "setting": "PC-14; first compound 0.01 µM", "value": 0.987}, {"measurement": "relative viability", "setting": "PC-14; first compound 0.03162 µM", "value": 0.891}, {"measurement": "relative viability", "setting": "PC-14; first compound 0.1 µM", "value": 0.931}, {"measurement": "relative viability", "setting": "PC-14; first compound 0.3162 µM", "value": 1.04}, {"measurement": "relative viability", "setting": "PC-14; first compound 1 µM", "value": 0.978}, {"measurement": "relative viability", "setting": "SK-LU-1; first compound 0.03162 µM", "value": 0.966}, {"measurement": "relative viability", "setting": "SK-LU-1; first compound 0.1 µM", "value": 0.985}, {"measurement": "relative viability", "setting": "SK-LU-1; first compound 0.3162 µM", "value": 1.09}, {"measurement": "relative viability", "setting": "SK-LU-1; first compound 1 µM", "value": 1.01}, {"measurement": "relative viability", "setting": "SW 1573; first compound 0.01 µM", "value": 1.13}, {"measurement": "relative viability", "setting": "SW 1573; first compound 0.03162 µM", "value": 0.736}, {"measurement": "relative viability", "setting": "SW 1573; first compound 0.1 µM", "value": 0.868}, {"measurement": "relative viability", "setting": "SW 1573; first compound 0.3162 µM", "value": 0.735}, {"measurement": "relative viability", "setting": "SW 1573; first compound 1 µM", "value": 0.733}]}
